Measurements as given in article PMC8327742 (Haematologica, 2021).
Like-named read-outs stand apart in the source and are kept apart here.

How the values were obtained:
[1] = tested on: EBF1-PDGFRB; test: viability assay of transformed Ba/F3 cells; type: cell-based, Homo sapiens; conditions: Ba/F3 cells with wild-type fusion; cell viability read-out
[2] = tested on: EBF1-PDGFRB; conditions: Ba/F3 cells with mutant fusion; cell viability read-out; gatekeeper; stated gain

Row | IC50 [1] [nM] | SMILES | IC50 [2] [nM]
1 | 5.26 | Cc1nc(Nc2ncc(C(=O)Nc3c(C)cccc3Cl)s2)cc(N2CCN(CCO)CC2)n1 [dasatinib] | –
2 | 5.73 | Cc1ccc(C(=O)Nc2ccc(CN3CCN(C)CC3)c(C(F)(F)F)c2)cc1C#Cc1cnc2cccnn12 [ponatinib] | 23.93
